Experimental data from PubChem BioAssay (NCI).
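Cultured in 96-well plates, cells were exposed to test compound for 48 hours across five concentrations. TGI marks complete inhibition of growth.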

Legend:
Assay in all cases: inhibition of tumour cell growth, NCI panel, 48 h
[1] = tested on: M14 melanoma
[2] = tested on: 786-0 renal
[3] = tested on: HOP-62 NSCLC
[4] = tested on: KM20L2 colon
[5] = tested on: NCI-H226 lung
[6] = tested on: NCI-H460 lung
[7] = tested on: EKVX NSCLC
[8] = tested on: DLD-1 colon
[9] = tested on: RPMI-8226 leukemia
[10] = tested on: A498 renal
[11] = tested on: LOX IMVI melanoma
[12] = tested on: OVCAR-4 ovarian
[13] = tested on: SNB-78 CNS
[14] = tested on: HT29 colon
[15] = tested on: UACC-257 melanoma
[16] = tested on: UO-31 renal
[17] = tested on: HOP-18 NSCLC
[18] = tested on: CCRF-CEM leukemia
[19] = tested on: ACHN renal
[20] = tested on: OVCAR-5 ovarian
[21] = tested on: K-562 leukemia
[22] = tested on: SK-MEL-2 melanoma
[23] = tested on: NCI-H23 lung
[24] = tested on: CAKI-1 renal
[25] = tested on: MALME-3M melanoma
[26] = tested on: SF-268 CNS
[27] = tested on: IGROV1 ovarian
[28] = tested on: SK-MEL-5 melanoma
[29] = tested on: HCT-15 colon
[30] = tested on: DMS 273 small cell lung
[31] = tested on: SK-MEL-28 melanoma
[32] = tested on: HOP-92 NSCLC
[33] = tested on: SNB-19 CNS
[34] = tested on: SK-OV-3 ovarian
[35] = tested on: U251 CNS
[36] = tested on: SF-539 CNS
[37] = tested on: SN12C renal
[38] = tested on: M19-MEL melanoma
[39] = tested on: COLO 205 colon
[40] = tested on: SW-620 colon
[41] = tested on: A549 NSCLC
[42] = tested on: RXF-631 renal
[43] = tested on: OVCAR-8 ovarian
[44] = tested on: HCC-2998 colon
[45] = tested on: HCT-116 colon
[46] = tested on: TK-10 renal
[47] = tested on: SF-295 CNS
[48] = tested on: UACC-62 melanoma
[49] = tested on: SNB-75 CNS
[50] = tested on: OVCAR-3 ovarian
[51] = tested on: KM12 colon
[52] = tested on: NCI-H522 lung
[53] = tested on: SR leukemia
[54] = tested on: RXF 393 renal
[55] = tested on: XF 498 CNS
[56] = tested on: MOLT-4 leukemia

Measured: TGI

O=c1c2cc(Br)ccc2[nH]c(=S)n1-c1ccccc1
not listed: [52] | [53] | [54] | [55] | [56]
> 100 µM: all other assays above

COc1ccccc1/C=C1\N=C(C)OC1=O
not listed: [2] | [3] | [5] | [6] | [7] | [9] | [10] | [11] | [15] | [17] | [19] | [26] | [30] | [36] | [41] | [45] | [49]
> 100 µM: all other assays above
